Key:
[1] = test system: CACO-2; conditions: human, Caco-2, pH 7.4
[2] = in vitro; conditions: human, Caco-2, pH 7.4

- % Recovery [1]: 117%
- Papp A→B [2]: 20.6 nm/s
- Papp B→A [2]: 294 nm/s
Compound: C[C@H]1O[C@@H](O[C@H]2[C@@H](O)C[C@H](O[C@H]3[C@@H](O)C[C@H](O[C@H]4CC[C@@]5(C)[C@H](CC[C@@H]6[C@@H]5C[C@@H](O)[C@]5(C)[C@@H](C7=CC(=O)OC7)CC[C@]65O)C4)O[C@@H]3C)O[C@@H]2C)C[C@H](O)[C@@H]1O [DigoxinS]
